Source: ChEMBL document CHEMBL1201862, “PubChem BioAssay data set” (2004)
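1) Cells in 96-well plates. 2) Compound, 48 h, 5 concentrations. 3) Linear interpolation between surrounding doses. 4) Unreached endpoint = highest concentration. GI50 = concentration required for 50% inhibition of growth.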 The source made the active and inactive calls. Rule as the data show it: active = GI50 up to about 1.1 µM and inactive = higher.

Columns and labels:
Assay in all cases: NCI-60 cell line screen, 48 h
IGROV-1 = test system: IGROV-1
OVCAR-3 = test system: OVCAR-3
HOP-92 = test system: HOP-92
UACC-257 = test system: UACC-257
HOP-62 = test system: HOP-62
CAKI-1 = test system: CAKI-1
TK-10 = test system: TK-10
MDA-N = test system: MDA-N
Hs-578T = test system: Hs-578T
UACC-62 = test system: UACC-62
COLO 205 = test system: COLO 205
MOLT-4 = test system: MOLT-4
NCI-H23 = test system: NCI-H23
U-251 = test system: U-251
PC-3 = test system: PC-3
DU-145 = test system: DU-145
OVCAR-8 = test system: OVCAR-8
MCF7 = test system: MCF7
RPMI-8226 = test system: RPMI-8226
OVCAR-4 = test system: OVCAR-4
HCT-15 = test system: HCT-15
NCI/ADR-RES = test system: NCI/ADR-RES
786-0 = test system: 786-0
K562 = test system: K562
BT-549 = test system: BT-549
NCI-H226 = test system: NCI-H226
EKVX = test system: EKVX
SN12C = test system: SN12C
T47D = test system: T47D
SR = test system: SR
UO-31 = test system: UO-31
SK-OV-3 = test system: SK-OV-3
SF-295 = test system: SF-295
SF-268 = test system: SF-268
SW-620 = test system: SW-620
SNB-19 = test system: SNB-19
HCC 2998 = test system: HCC 2998
A498 = test system: A498
ACHN = test system: ACHN
A549 = test system: A549
SK-MEL-28 = test system: SK-MEL-28
NCI-H460 = test system: NCI-H460
NCI-H522 = test system: NCI-H522
OVCAR-5 = test system: OVCAR-5
MDA-MB-435 = test system: MDA-MB-435
M14 = test system: M14
SF-539 = test system: SF-539
LOX IMVI = test system: LOX IMVI
HT-29 = test system: HT-29
RXF 393 = test system: RXF 393
SK-MEL-5 = test system: SK-MEL-5
CCRF-CEM = test system: CCRF-CEM
Malme-3M = test system: Malme-3M
SK-MEL-2 = test system: SK-MEL-2
HCT-116 = test system: HCT-116
MDA-MB-231 = test system: MDA-MB-231
HL-60 = test system: HL-60
KM12 = test system: KM12
SNB-75 = test system: SNB-75

For `CC(C)(C)OC(=O)NNCC(O)COc1ccccc1` (configuration not stated), the GI50 (IGROV-1) was > 100 µM (inactive), the GI50 (OVCAR-3) was > 100 µM (inactive) and the GI50 (HOP-92) was > 100 µM (inactive). The GI50 (UACC-257) was > 100 µM (inactive), the GI50 (HOP-62) was > 100 µM (inactive) and the GI50 (CAKI-1) was > 100 µM (inactive). For the same molecule, the GI50 (TK-10) was > 100 µM (inactive), the GI50 (MDA-N) was > 100 µM (inactive) and the GI50 (Hs-578T) was > 100 µM (inactive). For the same molecule, the GI50 (UACC-62) was > 100 µM (inactive), the GI50 (COLO 205) was > 100 µM (inactive) and the GI50 (MOLT-4) was > 100 µM (inactive). The GI50 (NCI-H23) was > 100 µM (inactive), the GI50 (U-251) was > 100 µM (inactive) and the GI50 (PC-3) was > 100 µM (inactive). For the same molecule, the GI50 (DU-145) was > 100 µM (inactive), the GI50 (OVCAR-8) was > 100 µM (inactive) and the GI50 (MCF7) was > 100 µM (inactive). For the same molecule, the GI50 (RPMI-8226) was > 100 µM (inactive), the GI50 (OVCAR-4) was > 100 µM (inactive) and the GI50 (HCT-15) was over 100 µM. The GI50 (NCI/ADR-RES) was > 100 µM (inactive), the GI50 (786-0) was > 100 µM (inactive) and the GI50 (K562) was > 100 µM (inactive). The GI50 (BT-549) was > 100 µM (inactive), the GI50 (NCI-H226) was > 100 µM (inactive) and the GI50 (EKVX) was > 100 µM (inactive). For the same molecule, the GI50 (SN12C) was > 100 µM (inactive), the GI50 (T47D) was > 100 µM (inactive) and the GI50 (SR) was > 100 µM (inactive). The GI50 (UO-31) was > 100 µM (inactive), the GI50 (SK-OV-3) was > 100 µM (inactive) and the GI50 (SF-295) was > 100 µM (inactive). For the same molecule, the GI50 (SF-268) was > 100 µM (inactive), the GI50 (SW-620) was > 100 µM (inactive) and the GI50 (SNB-19) was > 100 µM (inactive). For the same molecule, the GI50 (HCC 2998) was > 100 µM (inactive), the GI50 (A498) was > 100 µM (inactive) and the GI50 (ACHN) was > 100 µM (inactive). The GI50 (A549) was > 100 µM (inactive), the GI50 (SK-MEL-28) was > 100 µM (inactive) and the GI50 (NCI-H460) was > 100 µM (inactive). The GI50 (NCI-H522) was > 100 µM (inactive), the GI50 (OVCAR-5) was > 100 µM (inactive) and the GI50 (MDA-MB-435) was > 100 µM (inactive). The GI50 (M14) was > 100 µM (inactive), the GI50 (SF-539) was > 100 µM (inactive) and the GI50 (LOX IMVI) was > 100 µM (inactive). For the same molecule, the GI50 (HT-29) was > 100 µM (inactive), the GI50 (RXF 393) was > 100 µM (inactive) and the GI50 (SK-MEL-5) was > 100 µM (inactive). For the same molecule, the GI50 (CCRF-CEM) was > 100 µM (inactive), the GI50 (Malme-3M) was > 100 µM (inactive) and the GI50 (SK-MEL-2) was > 100 µM (inactive). The GI50 (HCT-116) was > 100 µM (inactive), the GI50 (MDA-MB-231) was > 100 µM (inactive) and the GI50 (HL-60) was 0.0318 µM (active).
`COc1cc2c(cc1C)NC(=O)/C2=C/c1c(Cl)n(-c2ccccc2)c2ccccc12` was tested, and the GI50 (IGROV-1) was 34.4 µM (inactive), the GI50 (OVCAR-3) was 7.91 µM (inactive) and the GI50 (HOP-92) was 23 µM (inactive). The GI50 (UACC-257) was 20.5 µM (inactive), the GI50 (HOP-62) was 19.4 µM (inactive) and the GI50 (CAKI-1) was 21 µM (inactive). For the same molecule, the GI50 (TK-10) was 28.9 µM (inactive), the GI50 (MDA-N) was 15.1 µM (inactive) and the GI50 (Hs-578T) was 20 µM (inactive). For the same molecule, the GI50 (UACC-62) was 19.3 µM (inactive), the GI50 (COLO 205) was 5.86 µM (inactive) and the GI50 (MOLT-4) was 4.82 µM (inactive). For the same molecule, the GI50 (NCI-H23) was 16.4 µM (inactive), the GI50 (U-251) was 16.1 µM (inactive) and the GI50 (KM12) was 7.31 µM (inactive). For the same molecule, the GI50 (PC-3) was 4.41 µM (inactive), the GI50 (DU-145) was 31.8 µM (inactive) and the GI50 (OVCAR-8) was 23.4 µM (inactive). For the same molecule, the GI50 (MCF7) was 10.2 µM (inactive), the GI50 (RPMI-8226) was 7.28 µM (inactive) and the GI50 (HCT-15) was 11.8 µM. The GI50 (NCI/ADR-RES) was 16.8 µM (inactive), the GI50 (786-0) was 15.3 µM (inactive) and the GI50 (K562) was 6.46 µM (inactive). For the same molecule, the GI50 (BT-549) was 17.3 µM (inactive), the GI50 (EKVX) was 17.5 µM (inactive) and the GI50 (SN12C) was 11.2 µM (inactive). The GI50 (T47D) was 4.54 µM (inactive), the GI50 (SR) was 6.12 µM (inactive) and the GI50 (UO-31) was 49.2 µM (inactive). The GI50 (SK-OV-3) was 24.4 µM (inactive), the GI50 (SF-295) was 11.3 µM (inactive) and the GI50 (SF-268) was 20.6 µM (inactive). The GI50 (SW-620) was 13.9 µM (inactive), the GI50 (SNB-19) was 45.7 µM (inactive) and the GI50 (HCC 2998) was 8.24 µM (inactive). The GI50 (A498) was 32.8 µM (inactive), the GI50 (ACHN) was 12.7 µM (inactive) and the GI50 (A549) was 7 µM (inactive). For the same molecule, the GI50 (SK-MEL-28) was 21.8 µM (inactive), the GI50 (NCI-H460) was 9.59 µM (inactive) and the GI50 (NCI-H522) was 11.4 µM (inactive). The GI50 (OVCAR-5) was 29.5 µM (inactive), the GI50 (MDA-MB-435) was 15.1 µM (inactive) and the GI50 (M14) was 27.4 µM (inactive). The GI50 (SF-539) was 11.1 µM (inactive), the GI50 (LOX IMVI) was 7.33 µM (inactive) and the GI50 (HT-29) was 5.25 µM (inactive). For the same molecule, the GI50 (RXF 393) was 11.2 µM (inactive), the GI50 (SK-MEL-5) was 10.5 µM (inactive) and the GI50 (CCRF-CEM) was 4.42 µM (inactive). For the same molecule, the GI50 (Malme-3M) was 18.4 µM (inactive), the GI50 (SK-MEL-2) was 11.4 µM (inactive) and the GI50 (HCT-116) was 13.4 µM (inactive). The GI50 (MDA-MB-231) was 8.69 µM (inactive), the GI50 (SNB-75) was 65 µM (inactive) and the GI50 (HL-60) was 3.38 µM (inactive).
In the case of `Oc1cccc2c1[nH]c1c(C3=C[C@@]4(O)CC/C=C\CCCCN5CC[C@@H]3[C@]3(CC6/C=C\CCCCN6[C@H]34)C5)nccc12` (some centres not stated), the GI50 (IGROV-1) was 1.02 µM (active), the GI50 (OVCAR-3) was 0.893 µM (active) and the GI50 (HOP-92) was 0.226 µM (active). For the same molecule, the GI50 (UACC-257) was 1.68 µM (inactive), the GI50 (HOP-62) was 0.764 µM (active) and the GI50 (CAKI-1) was 1.67 µM (inactive). The GI50 (TK-10) was 1.9 µM (inactive), the GI50 (MDA-N) was 0.771 µM (active) and the GI50 (Hs-578T) was 1.63 µM (inactive). For the same molecule, the GI50 (UACC-62) was 1.47 µM (inactive), the GI50 (COLO 205) was 0.787 µM (active) and the GI50 (MOLT-4) was 0.64 µM (active). The GI50 (NCI-H23) was 0.912 µM (active), the GI50 (U-251) was 1.08 µM (active) and the GI50 (KM12) was 1.55 µM (inactive). The GI50 (PC-3) was 0.738 µM (active), the GI50 (DU-145) was 1.15 µM (inactive) and the GI50 (OVCAR-8) was 1.15 µM (inactive). The GI50 (MCF7) was 0.7 µM (active), the GI50 (RPMI-8226) was 0.61 µM (active) and the GI50 (OVCAR-4) was 0.679 µM (active). The GI50 (HCT-15) was 0.718 µM, the GI50 (NCI/ADR-RES) was 2.17 µM (inactive) and the GI50 (786-0) was 0.659 µM (active). The GI50 (K562) was 0.607 µM (active), the GI50 (BT-549) was 1.81 µM (inactive) and the GI50 (NCI-H226) was 2.21 µM (inactive). The GI50 (EKVX) was 1.23 µM (inactive), the GI50 (SN12C) was 0.891 µM (active) and the GI50 (T47D) was 0.804 µM (active). The GI50 (SR) was 0.578 µM (active), the GI50 (UO-31) was 1.44 µM (inactive) and the GI50 (SK-OV-3) was 1.94 µM (inactive). The GI50 (SF-295) was 1.75 µM (inactive), the GI50 (SF-268) was 1.58 µM (inactive) and the GI50 (SW-620) was 1.43 µM (inactive). The GI50 (SNB-19) was 2.69 µM (inactive), the GI50 (HCC 2998) was 0.384 µM (active) and the GI50 (A498) was 2.24 µM (inactive). The GI50 (ACHN) was 1.1 µM (active), the GI50 (A549) was 2.04 µM (inactive) and the GI50 (SK-MEL-28) was 1.66 µM (inactive). The GI50 (NCI-H460) was 0.65 µM (active), the GI50 (NCI-H522) was 1.01 µM (active) and the GI50 (OVCAR-5) was 1.07 µM (active). The GI50 (MDA-MB-435) was 0.798 µM (active), the GI50 (M14) was 0.966 µM (active) and the GI50 (SF-539) was 1.71 µM (inactive). For the same molecule, the GI50 (LOX IMVI) was 0.736 µM (active), the GI50 (HT-29) was 0.796 µM (active) and the GI50 (SK-MEL-5) was 1.59 µM (inactive). For the same molecule, the GI50 (CCRF-CEM) was 0.973 µM (active), the GI50 (Malme-3M) was 1.6 µM (inactive) and the GI50 (SK-MEL-2) was 1.47 µM (inactive). For the same molecule, the GI50 (HCT-116) was 1.38 µM (inactive), the GI50 (MDA-MB-231) was 1.19 µM (inactive) and the GI50 (SNB-75) was 0.946 µM (active). The GI50 (HL-60) was 0.667 µM (active).
